pIC50, pKd: −log10 of the molar value.
Experiments:
[1] = test system: pS6 (Ser240/244) in MEF TSC1−/− cells (mTORC1 signaling); assay: Cell-based assay for rapalog potency (pS6 in MEF TSC1-/- cells); parameters: species or system Mouse; settings: 2 hours treatment, average from multiple assays
Description: Cell-based assay for rapalog potency determination. Rapalog potency was determined using MEF TSC1−/− cell based assay. […] This cell-based assay is used to measure inhibition (de-phosphorylation) of S6 and 4EBP1 by rapalogs or other mTOR inhibitors.
MEF TSC1−/− cells were plated on Poly-D-lysine coated 384 well Griener clear bottom plates and incubated overnight at 37° C., 5% CO2. […] Nuclei were visualized with Hoechst (ThermoFisher Scientific #H3570) staining. Cells were imaged (InCell 600) using respective fluorescence channels and the potency of mTOR inhibitors was defined by pS6 IC50 (nM).

[2] = molecular target: T1, FKBP12 (Homo sapiens, UniProt P62942); assay: SPR assay, binding affinity to FKBP12; settings: single-cycle kinetics, immobilized avi-his6 FKBP12
T1 construct: made in house; host or cells: E. coli
Description: (§1) SPR assay to determine binding affinity to FK506-binding proteins (FKBP). […] Each protein was subsequently immobilized on a streptavidin chip in a Biacore 8K SPR instrument (GE Healthcare). Using single-cycle kinetics, compound titrations were flowed at 45 uL/min over each surface using 2-minute association and 30-minute dissociation phases in a buffer containing 50 mM Tris pH 7.5/150 mM NaCl/0.01% Tween 20/1 mM DTT/2% DMSO. The data were fit using low molecular weight (LMW) single-cycle kinetics. The equilibrium dissociation constants (KD) are reported. The equilibrium dissociation constants (KD) to FKBP12, FKBP51, and FKBP52 are listed in Table 2 for the compound of the disclosure.

[3] = molecular target: FKBP12.6 (Homo sapiens, UniProt P68106); assay: SPR assay, binding affinity to FKBP12.6; settings: single-cycle kinetics
Description: as §1

[4] = molecular target: T2, FKBP25 (Homo sapiens, UniProt Q00688); assay: SPR assay, binding affinity to FKBP25; settings: single-cycle kinetics
T2 sequence (Q00688 1-224): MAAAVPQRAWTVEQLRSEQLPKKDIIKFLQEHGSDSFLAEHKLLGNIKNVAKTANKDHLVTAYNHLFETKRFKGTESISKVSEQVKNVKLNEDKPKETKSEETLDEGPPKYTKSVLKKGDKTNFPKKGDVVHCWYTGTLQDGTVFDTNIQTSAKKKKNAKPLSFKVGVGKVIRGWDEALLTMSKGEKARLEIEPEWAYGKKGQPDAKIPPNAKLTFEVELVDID
Description: as §1

[5] = molecular target: T3, FKBP51 (Homo sapiens, UniProt Q13451); assay: SPR assay, binding affinity to FKBP51; settings: single-cycle kinetics, immobilized avi-his6 FKBP51
T3 construct: made in house; host or cells: E. coli
T3 sequence (Q13451 1-457): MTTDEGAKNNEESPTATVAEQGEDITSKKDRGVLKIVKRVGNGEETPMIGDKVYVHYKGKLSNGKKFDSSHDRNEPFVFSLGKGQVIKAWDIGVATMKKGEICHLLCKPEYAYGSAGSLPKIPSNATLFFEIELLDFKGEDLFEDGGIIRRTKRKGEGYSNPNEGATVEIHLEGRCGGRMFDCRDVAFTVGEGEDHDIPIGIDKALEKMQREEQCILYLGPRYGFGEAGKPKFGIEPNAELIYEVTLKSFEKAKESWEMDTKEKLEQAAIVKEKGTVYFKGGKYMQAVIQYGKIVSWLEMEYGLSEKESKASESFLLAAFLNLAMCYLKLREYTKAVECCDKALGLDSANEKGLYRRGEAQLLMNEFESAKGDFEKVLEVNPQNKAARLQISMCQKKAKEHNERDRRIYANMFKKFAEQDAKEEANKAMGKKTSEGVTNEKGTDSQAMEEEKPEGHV
Description: as §1

[6] = molecular target: T4, FKBP52 (Homo sapiens, UniProt Q02790); assay: SPR assay, binding affinity to FKBP52; settings: single-cycle kinetics, immobilized avi-his6 FKBP52
T4 construct: made in house; host or cells: E. coli
T4 sequence (Q02790 1-459): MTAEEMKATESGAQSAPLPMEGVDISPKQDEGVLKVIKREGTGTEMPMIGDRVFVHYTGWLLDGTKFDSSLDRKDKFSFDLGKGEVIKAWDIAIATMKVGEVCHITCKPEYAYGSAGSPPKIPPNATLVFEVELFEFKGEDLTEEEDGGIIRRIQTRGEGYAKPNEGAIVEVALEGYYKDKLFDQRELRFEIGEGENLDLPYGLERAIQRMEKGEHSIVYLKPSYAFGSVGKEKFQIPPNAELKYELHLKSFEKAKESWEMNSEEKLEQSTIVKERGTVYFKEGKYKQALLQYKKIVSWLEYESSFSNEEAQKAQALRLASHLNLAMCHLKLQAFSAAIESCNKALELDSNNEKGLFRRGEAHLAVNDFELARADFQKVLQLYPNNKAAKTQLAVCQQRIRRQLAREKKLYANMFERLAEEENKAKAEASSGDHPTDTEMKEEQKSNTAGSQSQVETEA
Description: as §1

[7] = test system: S6K1(Thr389) phosphorylation (mTORC1 activity) in FKBP12 knock-out 293T cells; assay: pS6K1(Thr389) sandwich ELISA in FKBP12 knock-out 293T cells; assay type: cell-based; settings: 2 hours, dose range 1000 nM to 0.0033 nM, relative to DMSO media (FIG. 1B)
Description: Cells were treated in triplicate. The Y axis represents percent inhibition of pS6K1(Thr389) relative to the level in cells treated with rapalog free media (media plus DMSO).
Generation of FKPB12 knock-out 293T cells.
WT and FKBP12 knock-out 293T cells were plated at a density of 30,000 cells per well in poly-D-Lysine coated 96-well plates (Corning, #354461) in Dulbecco's modified Eagle's medium (ThermoFisher, #11995-065) supplemented with 10% fetal bovine serum (ThermoFisher, #16140-071). Cells were incubated at 37° C., 5% CO2 for 48 hours until they reached ˜80% confluence. […] Media supplemented with blank Dimethyl sulfoxide (DMSO) was used as a control for both compounds. Phosphorylated amounts of S6K1 (Thr389) were detected by a sandwich ELISA kit (Cell signaling, #7063C) following the manufacture's protocol.
S6K1 is a downstream target of mTORC1 and phosphorylation of its rapalog-sensitive Thr389 site is used as a functional readout of mTORC1 activity (Lee, C. H., Inoki, K. and Guan, K. L. (2007). mTOR pathway as a target in tissue hypertrophy. Annu. Rev. Pharmacol. Toxicol. 47, 443-467).

T1 sequence (P62942 whole entry): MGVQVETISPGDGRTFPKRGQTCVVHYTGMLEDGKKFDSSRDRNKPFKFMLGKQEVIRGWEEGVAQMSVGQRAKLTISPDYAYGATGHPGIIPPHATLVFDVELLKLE
Sequence of FKBP12.6 (P68106 whole entry, species assumed): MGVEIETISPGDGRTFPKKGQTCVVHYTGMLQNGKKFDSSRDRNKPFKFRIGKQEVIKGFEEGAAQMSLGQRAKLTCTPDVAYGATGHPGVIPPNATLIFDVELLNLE

| Compound | pIC50 [1] | pIC50 ([1]; Mus musculus, 2 h) | pKd [2] | pKd [3] | pKd [4] | pKd [5] | pKd [6] | inhibition of S6K1(Thr389) phosphorylation [7] |
| --- | --- | --- | --- | --- | --- | --- | --- | --- |
| CO[C@@H]1C[C@H](C[C@@H](C)[C@@H]2CC(=O)[C@H](C)/C=C(\C)[C@@H](O)[C@@H](OC)C(=O)[C@H](C)C[C@H](C)/C=C/C=C/C=C(\C)C(N3CCCS3(=O)=O)C[C@@H]3CC[C@@H](C)[C@@](O)(O3)C(=O)C(=O)N3CCCC[C@H]3C(=O)O2)CC[C@H]1OCCO (single isomer, unassigned) [Compound 2] | 7.65 | – | – | – | – | – | – | – |
| CO[C@@H]1C[C@H](C[C@@H](C)[C@@H]2CC(=O)[C@H](C)/C=C(\C)[C@@H](O)[C@@H](OC)C(=O)[C@H](C)C[C@H](C)/C=C/C=C/C=C(\C)C(N3CCCS3(=O)=O)C[C@@H]3CC[C@@H](C)[C@@](O)(O3)C(=O)C(=O)N3CCCC[C@H]3C(=O)O2)CC[C@H]1OCCO (single isomer, unassigned) [Compound 3] | 8.08 | – | – | – | – | – | – | – |
| CO[C@@H]1C[C@H](C[C@@H](C)[C@@H]2CC(=O)[C@H](C)/C=C(\C)[C@@H](O)[C@@H](OC)C(=O)[C@H](C)C[C@H](C)/C=C/C=C/C=C(\C)C(N3CCCS3(=O)=O)C[C@@H]3CC[C@@H](C)[C@@](O)(O3)C(=O)C(=O)N3CCCC[C@H]3C(=O)O2)CC[C@H]1O (stereo partly drawn) [Compound 1] | – | 8.87 | 8.19 | 7.25 | 4.54 | 5.69 | 5.45 | no longer inhibited |
| CO[C@@H]1C[C@H](C[C@@H](C)[C@@H]2CC(=O)[C@H](C)/C=C(\C)[C@@H](O)[C@@H](OC)C(=O)[C@H](C)C[C@H](C)/C=C/C=C/C=C(\C)C(N3CCCCS3(=O)=O)C[C@@H]3CC[C@@H](C)[C@@](O)(O3)C(=O)C(=O)N3CCCC[C@H]3C(=O)O2)CC[C@H]1O (stereo partly drawn) [Compound 4] | – | 8.47 | 7.96 | – | – | 5.59 | 5.59 | – |
| CO[C@H]1C[C@@H]2CC[C@@H](C)[C@@](O)(O2)C(=O)C(=O)N2CCCC[C@H]2C(=O)O[C@H]([C@H](C)C[C@@H]2CC[C@@H](OCCO)[C@H](OC)C2)CC(=O)[C@H](C)/C=C(\C)[C@@H](O)[C@@H](OC)C(=O)[C@H](C)C[C@H](C)/C=C/C=C/C=C/1C [RAD001, everolimus, reference compound] | – | 10.30 | 6.54 | 7.92 | 7.60 | 6.40 | 6.17 | ~50% |
| CO[C@H]1C[C@@H]2CC[C@@H](C)[C@@](O)(O2)C(=O)C(=O)N2CCCC[C@H]2C(=O)O[C@H]([C@H](C)C[C@@H]2CC[C@@H](O)[C@H](OC)C2)CC(=O)[C@H](C)/C=C(\C)[C@@H](O)[C@@H](OC)C(=O)[C@H](C)C[C@H](C)/C=C/C=C/C=C/1C [Rapamycin, reference compound] | – | 10.30 | – | – | – | – | – | – |

From patent US12648936B2 (NOVARTIS AG, priority 2019, dated 2026)
